“And” between values parts separate entries of the source, which are not always exact repeats. Identical values can stand only once.
Columns and labels:
[1] = test system: human 3-dimensional organotypic cultures; test: In vitro model of dandruff: organotypic skin cultures given IL-22 and IL-17A; format: cell-based; settings: organotypic cultures treated with IL-22 and IL-17A
Excerpt: In some embodiments, the methods of the present invention may further comprise testing the selected candidate cosmetic agent, using in vitro assays and/or in vivo testing, to validate the activity of the agent and usefulness as a cosmetic agent. Any suitable in vitro test method can be used, including those known in the art, and most preferably in vitro models developed in accordance with the present invention. For example, MatTek human skin equivalent cultures or other skin equivalent cultures may be treated with one or a combination of perturbagens selected for mimicry of the skin condition of interest with respect to regulation of the genes constituting a physiological theme pattern for the skin condition of interest. The treated skin culture replicates the, for example, dandruff condition where it is treated with IL17 and IL22 in accordance with the instant invention, and perturbagens may be screened for their ability to shift the homeostatic equilibrium of the treated skin culture toward healthy skin, as determined by transcriptional analysis. Skin biopsy assays may also be used to evaluate candidate skin-active agents as anti-dandruff agents. In some embodiments, evaluation of selected agents using in vitro assays may reveal, confirm, or both, that one or more new candidate cosmetic agents may be used in conjunction with a known cosmetic agent (or a combination of known cosmetic agents) to regulate a skin condition of interest.
A great challenge in the identification of new therapeutics is the development of in vitro models that are predictive of clinical efficacy. Because no animal models of the dandruff condition are available, there is a need for a model with high fidelity to the internal disease state so that it recapitulates the key features of dandruff lesional skin in vivo. The challenge of developing a good in vitro model for skin conditions such as dandruff is complicated by the fact that the events that trigger the development of dandruff are poorly understood. Transcriptomic profiling work in dandruff lesional skin has provided many new clues, chief among them evidence for a Th-17 driven inflammatory process.
These substances include selenium sulfide, ZPT, ketoconazole, clobetasol propionate and the iron chelator 1,10-phenanthroline.
The in vitro disease simulation according to the invention produces a pattern of gene expression that strongly resembles dandruff lesional skin. Affymetrix U133A Plus 2 microarrays were used to evaluate the gene expression profile elicited by exposure of organotypic human skin cultures to a variety of proinflammatory cytokines individually and in combination, as set forth in FIG. 21A and FIG. 21B. […] This strongly supports that the simulation is producing a gene expression pattern that resembles the disease condition.

[2] = test system: Human telomerized keratinocytes (tKC); test: C-map query with lipid metabolism / immune-inflammation dandruff gene signature, keratinocyte instances; format: cell-based
Excerpt: In a very specific embodiment, an instance consists of the rank ordered data for all of the probe sets on the Affymetrix HG-U133A2.0 GeneChip wherein each probe on the chip has a unique probe set IDentifier. The probe sets are rank ordered by the fold change relative to the controls in the same C-map batch (single instance/average of controls).
Individual experiments (referred to as batches) generally comprise 30 to 96 samples analyzed using Affymetrix GeneChip® technology platforms, containing 6 replicates of the vehicle control (e.g., DMSO), 2 replicate samples of a positive control that gives a strong reproducible effect in the cell type used, and samples of the test material/perturbagen. Replication of the test material is done in separate batches due to batch effects. In vitro testing was performed in 6-well plates to provide sufficient RNA for GeneChip® analysis (2-4 μg total RNA yield/well).
(§1) Human telomerized keratinocytes (tKC) were obtained from the University of Texas, Southwestern Medical Center, Dallas, Tex. tKC cells were grown in EpiLife® media with 1× Human Keratinocyte Growth Supplement (Invitrogen, Carlsbad, Calif.) on collagen I coated cell culture flasks and plates (Becton Dickinson, Franklin Lakes, N.J.). Keratinocytes were seeded into 6-well plates at 20,000 cells/cm^2 24 hours before chemical exposure. Human skin fibroblasts (BJ cell line from ATCC, Manassas, Va.) were grown in Eagle's Minimal Essential Medium (ATCC) supplemented with 10% fetal bovine serum (HyClone, Logan, Utah) in normal cell culture flasks and plates (Corning, Lowell, Mass.). BJ fibroblasts were seeded into 6-well plates at 12,000 cells/cm^2 24 hours before chemical exposure.
All cells were incubated at 37° C. in a humidified incubator with 5% CO2. At t=−24 hours cells were trypsinized from T-75 flasks and plated into 6-well plates in basal growth medium. At t=0 media was removed and replaced with the appropriate dosing solution as per the experimental design.

MCF7 = test: C-map query with lipid metabolism / immune-inflammation dandruff gene signature, MCF7 instances; settings: MCF7, 10 μM
[3] = test system: fibroblast and keratinocyte cell lines; test: C-map query with lipid-immune dandruff signature, whole database; format: cell-based, human; settings: each agent tested at several concentrations
Method: as §1
Each agent was tested at several concentrations.

[4] = test system: scalp skin of dandruff subjects; test: ZPT transcriptomics study: double-blind, vehicle-controlled shampoo treatment, scalp biopsy gene expression; format: in vivo, human; settings: shampoo with 1% ZPT, 3 times a week for 3 weeks, week 3
Excerpt: 1) 31 healthy male subjects aged 18-75 were divided into two groups of 16 “non-dandruff” and 15 “dandruff” subjects, as defined by a published flake scoring procedure, adherent scalp flake score (ASFS). […] 2) In a double-blinded treatment study, 45 healthy male subjects (30 dandruff and 15 non-dandruff as defined by ASFS criteria, aged 18-50 years) were enrolled and were shampooed at the clinical site three (3) times a week for three (3) weeks with either a commercially available anti-dandruff shampoo with 1% ZPT (15 dandruff subjects) or the same formula without ZPT (15 dandruff and 15 non-dandruff subjects). Full thickness 2 mm biopsies were collected from all three groups at baseline and end of study. Total RNA was extracted from the biopsies and labeled for Affymetrix GeneChip® analysis. The synthesized target cRNA was hybridized to Affymetrix HG U133A microarrays. Statistically analyzed data were filtered by significance (p<0.05, Dandruff vs. Non-Dandruff; ZPT vs. vehicle treatments) to identify genes showing an increase or decrease in expression level, a standard bioinformatics approach. Methodology and Results of Study 1:
The subject's hair/scalp was washed by study personnel on clinical site 3×/week for 3 weeks. Full thickness 2 mm punch biopsies collected at baseline and end of study. […]

[5] = test system: human keratinocytes (hKC); test: Connectivity map linkage scores, inflammatory skin disorder signature, hKC instances; format: cell-based
Excerpt: (§2) Gene expression data from five inflammatory skin disorders (acne, atopic dermatitis, dandruff, eczema and psoriasis) were collected from a clinical genomics study and published studies. The raw expression data were used to produce a rank-ordered list of most differentially regulated genes associated with inflammatory skin disorders.
The derived gene signature was used to query a provided database comprising gene expression data from clinical genomics studies of a widely different inflammatory skin disorders, published in vitro genomics studies of disparate inflammatory skin disorders, and genomics data from an internal in vitro model of dandruff inflammatory pathology (human organotypic, MatTek, cultures). […] Thus, the internal model was validated as being useful for study of inflammatory cascades and other gene expression alterations associated with inflammatory skin disorders.

[6] = test system: reconstituted human epidermis (RHE); test: Connectivity map linkage scores, inflammatory skin disorder signature (top 70 up / 70 down), RHE instances; format: cell-based; design: scale not given here
Excerpt: as §2
The derived gene signature was used to query a provided database comprising gene expression data from clinical genomics studies of a widely different inflammatory skin disorders, published in vitro genomics studies of disparate inflammatory skin disorders, and genomics data from an internal in vitro model of dandruff inflammatory pathology (human organotypic, MatTek, cultures).

## c1cnc2c(c1)ccc1cccnc12 [1,10-phenanthroline]
[1]
  Blocking of IL-22/IL-17A-induced responses (hyperplasia, perturbed differentiation markers, IL-8 secretion): capable of blocking these responses

## CC(C)(C)C(=O)C(Oc1ccc(Cl)cc1)n1ccnc1 (centres unmarked) [Climbazole]
[2]; 1 μM, 6hr (chip ID)
  Score (connectivity score): −0.55
[2]; 10 μM, 24hr (chip ID)
  Score (connectivity score): −0.67

## CCC(=O)O[C@]1(C(=O)CCl)[C@@H](C)C[C@H]2[C@@H]3CCC4=CC(=O)C=C[C@]4(C)[C@@]3(F)[C@@H](O)C[C@@]21C [Clobetasol Propionate]
[1]
  Blocking of IL-22/IL-17A-induced responses (hyperplasia, perturbed differentiation markers, IL-8 secretion): capable of blocking these responses

## CC(=O)N1CCN(c2ccc(OCC3COC(Cn4ccnc4)(c4ccc(Cl)cc4Cl)O3)cc2)CC1 (centres unmarked) [Ketoconazole]
[2]; 1 μM, 24hr (chip ID)
  Score (connectivity score): −0.58
[1]
  Blocking of IL-22/IL-17A-induced responses (hyperplasia, perturbed differentiation markers, IL-8 secretion): capable of blocking these responses

## CN(CCOc1ccc(CC2SC(=O)NC2=O)cc1)c1ccccn1 (centres unmarked) [Rosiglitazone]
MCF7
  Score (connectivity score): −0.51

## O=C(O)Cc1cc(I)c(Oc2ccc(O)c(I)c2)c(I)c1 [Triac]
[2]; 10 μM, exposure time not given
  Score (connectivity score): −0.53

## [O-]n1ccccc1=S.[O-]n1ccccc1=S.[Zn+2] [ZPT, zinc salt of 1-hydroxy-2-pyrithione]
[1]
  Blocking of IL-22/IL-17A-induced responses (hyperplasia, perturbed differentiation markers, IL-8 secretion): capable of blocking these responses
[3]
  Linkage to lipid-immune dandruff gene signature: not in the list of instances strongly linked to the gene signature
[4]
  Scalp gene expression profile shift (~3700 significantly altered genes, hierarchical clustering): expression shift toward the non-dandruff condition

## S=[Se]=S [selenium sulfide]
[1]
  Blocking of IL-22/IL-17A-induced responses (hyperplasia, perturbed differentiation markers, IL-8 secretion): capable of blocking these responses
[3]
  Linkage to lipid-immune dandruff gene signature: not in the list of instances strongly linked to the gene signature

## HK23/2 IL17: interleukin; proinflammatory cytokine produced by Th-17 cells
[5]; 200 ng/ml
  Down Score: −0.151
  Score: 0.579
  Up Score: 0.428

## IL1b: interleukin
[6]; 10 ng/ml
  Score: 0.710 and 0.649
  Up Score: 0.420 and 0.380

B1: IFNg: interferon (protein, UniProt P01579 24-161, looked up)
Interferon gamma: QDPYVKEAENLKKYFNAGHSDVADNGTLFLGILKNWKEESDRKIMQSQIVSFYFKLFKNFKDDQSIQKSVETIKEDMNVKFFNSNKKKRDDFEKLTNYSVTDLNVQRKAIHELIQVMAELSPAAKTGKRKRSQMLFRG
[6]; 10 ng/ml
  Score: 0.665 and 0.657
  Up Score: 0.420 and 0.431
[5]; 20 ng/ml
  Down Score: −0.102
  Score: 0.552
  Up Score: 0.450

B2: IL24: interleukin (protein, UniProt Q13007 52-206, looked up)
Interleukin-24: QEFHFGPCQVKGVVPQKLWEAFWAVKDTMQAQDNITSARLLQQEVLQNVSDAESCYLVHTLLEFYLKTVFKNYHNRTVEVRTLKSFSTLANNFVLIVSQLQPSQENEMFSIRDSAHRRFLLFRRAFKQLDVEAALTKALGEVDILLTWMQKFYKL
[6]; 20 ng/ml
  Score: 0.833 and 0.829 and 0.801
  Up Score: 0.485 and 0.517 and 0.461

B3: IL22: interleukin; proinflammatory cytokine produced by Th-17 cells (protein, UniProt Q9GZX6 34-179, looked up)
Interleukin-22: APISSHCRLDKSNFQQPYITNRTFMLAKEASLADNNTDVRLIGEKLFHGVSMSERCYLMKQVLNFTLEEVLFPQSDRFQPYMQEVVPFLARLSNRLSTCHIEGDDLHIQRNVQKLKDTVKKLGESGEIKAIGELDLLFMSLRNACI
[6]; 20 ng/ml
  Score: 0.789 and 0.740 and 0.705
  Up Score: 0.444 and 0.410 and 0.388
[5]; 200 ng/ml
  Down Score: −0.214
  Score: 0.573
  Up Score: 0.358

B4: IL19: interleukin (protein, UniProt Q9UHD0 25-177, looked up)
Interleukin-19: LRRCLISTDMHHIEESFQEIKRAIQAKDTFPNVTILSTLETLQIIKPLDVCCVTKNLLAFYVDRVFKDHQEPNPKILRKISSIANSFLYMQKTLRQCQEQRQCHCRQEATNATRVIHDNYDQLEVHAAAIKSLGELDVFLAWINKNHEVMFSA
[6]; 20 ng/ml
  Score: 0.749 and 0.729 and 0.807
  Up Score: 0.410 and 0.460 and 0.505

From patent US10072293B2, “Systems, models and methods for identifying and evaluating skin-active agents effective for treating dandruff/seborrheic dermatitis” (The Procter and Gamble Company, priority 2011, dated 2018)
